Assay results: patent US12201632B2, “Levoketoconazole for treatment of congenital adrenal hyperplasia and primary aldosteronism” (Strongbridge Dublin Limited, priority 2018, dated 2025)
Read-outs that look alike come from different tables or passages of the source.

System: AtT20 cells
Experiment: Cell number of corticotroph pituitary AtT20 cells
Assay type: cell-based, mouse
Conditions: for IC50: AtT20, after 7 days, read-out: IC50 inhibition of cell number
Procedure: Human adrenocortical carcinoma HAC15 and mouse corticotroph AtT20 cells were used, purchased as a kind gift by Dr. W. Rainey, and obtained from Dr. J. Tooze (European Organization for Molecular Biology), respectively. Both cell lines were cultured in 75 cm^2 flasks at 37° C. in a humidified incubator (Greiner Bio-One, Alphen a/d Rijn, the Netherlands) at 5% CO2. Dulbecco's Modified Eagle Medium F12 containing 5% fetal calf serum was used for HAC15, whereas AtT20 cells were cultured in Dulbecco's minimal essential medium (DMEM) supplemented with 10% fetal calf serum. Both mediums were supplemented with L-glutamine (2 mmol/L) and penicillin (10^5 U/L). Short tandem repeat (str) profiling using a Powerplex Kit (Promega, Leiden, the Netherlands) of HAC15 and AtT20 gave results consistent with the ATCC database, confirming the identity of both cell lines. Medium and supplements were obtained from Invitrogen, Breda, the Netherlands. Once a week, cells were harvested with trypsin (0.05%)-EDTA (0.53 mM) and resuspended in culture medium. Levoketoconazole (COR-003) and racemic ketoconazole (both from Cortendo AB) were dissolved in absolute ethanol (EtOH), according to manufacturer's instructions, and stored at −20° C. at a stock concentration of 10^−2 μM. At the start of each experiment, both drugs were freshly prepared and diluted in EtOH in the correct concentrations. Synacten (synthetic ACTH, Novartis Pharma A.G.) stock concentration was stored at 4° C. and dissolved in culture medium at the day of use. The final concentrations of ACTH were chosen based on a dose-response curve in HAC15 cells and previously reported studies in the literature. For HAC15, 200,000 and 100,000 cells were plated in 0.5 ml medium in 24 well plates for experiments of 1 and 3 days, respectively. For AtT20, cell amounts were 100,000 and 30,000. One day after seeding the HAC15 cells, the medium was refreshed and cells were treated 1 or 3 days in quadruplicate with levoketoconazole or racemic ketoconazole (0.05-5 μM), with or without 10 nM ACTH. To study effects of both compounds on pituitary AtT20 cells, concentrations of 0.1 to 10 μM of both drugs were used. Controls were vehicle treated. […] All cell culture experiments were carried out at least twice.
As a measure of cell number, DNA concentrations were determined using the bisbenzimide fluorescent dye (Hoechst 33258, Sigma Aldrich), as previously described.
Statistical analysis was performed using Graphpad Prism 6.0 (Graphpad Software, San Diego, CA). Non-linear regression curve fitting program was used to calculate the half maximal inhibitory concentrations (IC50) on cortisol production. Effects of both compounds on the steroid profile were measured as absolute change compared to control and compared using the Student's t-test. When assessing differences between effects of both compounds, the percentage change was evaluated and compared in order to correct for differences in the vehicle treated control cells. Values of P<0.05 were considered statistically significant and data are presented as mean SEM.

[1] = AtT20, after 3 and 7 days of treatment

Row | IC50 (Mus musculus, 168 h) [µM] | SMILES | effect on cell number [1] | effect on cell number (AtT20, after 24 h of treatment) | IC50 [µM]
1 | 5.81 | CC(=O)N1CCN(c2ccc(OCC3COC(Cn4ccnc4)(c4ccc(Cl)cc4Cl)O3)cc2)CC1 (racemic) [racemic ketoconazole, Ketoconazole] | inhibited cell number | no effect | –
2 | – | CC(=O)N1CCN(c2ccc(OC[C@@H]3CO[C@@](Cn4ccnc4)(c4ccc(Cl)cc4Cl)O3)cc2)CC1 (relative stereo) [levoketoconazole, 2S,4R cis-1-acetyl-4-[4-[[2-(2,4-dichlorophenyl)-2-(1H-imidazol-1-ylmethyl)-1,3-dioxolan-4-yl]methoxyl]phenyl]piperazine] | inhibited cell number | no effect | 1.05
